Test [1] deals with human TLR7 (Homo sapiens (Human), UniProt Q9NYK1). Put plainly: HEK293 NFKB reporter assay, human TLR7. To be noted: HEK293 reporter cells expressing human TLR7; read-out: HEK293 hTLR7 EC50. The class given is cell-based. As for the experimental part: (§1) Each compound was synthesized, purified, and characterized by mass spectrometry and shown to have the mass indicated. Additional experimental procedures are found in the Examples. Activity against HEK293 NFKB reporter cells expressing human TLR7 or human TLR8 was measured according to Example 202.
(§2) HEK293 reporter cells expressing human TLR7 or human TLR8 were purchased from Invivogen and vendor protocols were followed for cellular propagation and experimentation. Briefly, cells were grown to 80-85% confluence at 5% CO2 in DMEM supplemented with 10% FBS, Zeocin, and Blasticidin. Cells were then seeded in 96-well flat plates at 4×10^4 cells/well with substrate containing HEK detection medium and immunostimulatory molecules. Activity was measured using a plate reader at 620-655 nm wavelength.

Test [2] has as its target human TLR8 (Homo sapiens (Human), UniProt Q9NR97). Put plainly: HEK293 NFKB reporter assay, human TLR8. The class given is cell-based. To be noted: HEK293 reporter cells expressing human TLR8; read-out: HEK293 hTLR8 EC50. As for the experimental part: as §1, §2

The structures appear in SMILES notation.

human TLR8, sequence (Q9NR97 27-1041): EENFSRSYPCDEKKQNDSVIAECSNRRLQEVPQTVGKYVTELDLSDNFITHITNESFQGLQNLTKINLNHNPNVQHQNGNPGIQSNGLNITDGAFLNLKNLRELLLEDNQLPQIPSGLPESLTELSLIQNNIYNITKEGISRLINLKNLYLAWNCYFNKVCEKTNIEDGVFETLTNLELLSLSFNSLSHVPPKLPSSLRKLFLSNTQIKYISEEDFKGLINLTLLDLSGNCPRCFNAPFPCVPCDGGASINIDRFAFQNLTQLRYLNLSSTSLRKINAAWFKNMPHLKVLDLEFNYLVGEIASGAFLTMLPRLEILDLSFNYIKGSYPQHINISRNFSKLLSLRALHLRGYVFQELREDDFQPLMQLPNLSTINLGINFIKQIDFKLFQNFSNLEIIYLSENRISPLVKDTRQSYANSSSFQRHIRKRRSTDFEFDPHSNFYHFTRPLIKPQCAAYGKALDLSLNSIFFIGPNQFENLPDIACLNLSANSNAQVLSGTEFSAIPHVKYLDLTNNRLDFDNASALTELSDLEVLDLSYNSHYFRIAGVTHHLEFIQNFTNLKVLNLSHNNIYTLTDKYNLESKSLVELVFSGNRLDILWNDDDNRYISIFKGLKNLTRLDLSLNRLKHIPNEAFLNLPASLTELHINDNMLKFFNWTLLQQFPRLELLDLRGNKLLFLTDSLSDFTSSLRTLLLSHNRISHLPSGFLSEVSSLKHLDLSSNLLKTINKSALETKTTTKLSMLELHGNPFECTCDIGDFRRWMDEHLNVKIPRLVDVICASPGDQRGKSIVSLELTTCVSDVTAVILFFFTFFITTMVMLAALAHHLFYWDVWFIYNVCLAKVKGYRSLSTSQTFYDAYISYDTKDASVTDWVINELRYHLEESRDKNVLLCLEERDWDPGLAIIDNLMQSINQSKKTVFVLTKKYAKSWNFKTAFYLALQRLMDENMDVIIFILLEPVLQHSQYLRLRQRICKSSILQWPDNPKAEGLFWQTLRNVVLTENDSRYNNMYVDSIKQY
human TLR7, sequence (Q9NYK1 27-1049): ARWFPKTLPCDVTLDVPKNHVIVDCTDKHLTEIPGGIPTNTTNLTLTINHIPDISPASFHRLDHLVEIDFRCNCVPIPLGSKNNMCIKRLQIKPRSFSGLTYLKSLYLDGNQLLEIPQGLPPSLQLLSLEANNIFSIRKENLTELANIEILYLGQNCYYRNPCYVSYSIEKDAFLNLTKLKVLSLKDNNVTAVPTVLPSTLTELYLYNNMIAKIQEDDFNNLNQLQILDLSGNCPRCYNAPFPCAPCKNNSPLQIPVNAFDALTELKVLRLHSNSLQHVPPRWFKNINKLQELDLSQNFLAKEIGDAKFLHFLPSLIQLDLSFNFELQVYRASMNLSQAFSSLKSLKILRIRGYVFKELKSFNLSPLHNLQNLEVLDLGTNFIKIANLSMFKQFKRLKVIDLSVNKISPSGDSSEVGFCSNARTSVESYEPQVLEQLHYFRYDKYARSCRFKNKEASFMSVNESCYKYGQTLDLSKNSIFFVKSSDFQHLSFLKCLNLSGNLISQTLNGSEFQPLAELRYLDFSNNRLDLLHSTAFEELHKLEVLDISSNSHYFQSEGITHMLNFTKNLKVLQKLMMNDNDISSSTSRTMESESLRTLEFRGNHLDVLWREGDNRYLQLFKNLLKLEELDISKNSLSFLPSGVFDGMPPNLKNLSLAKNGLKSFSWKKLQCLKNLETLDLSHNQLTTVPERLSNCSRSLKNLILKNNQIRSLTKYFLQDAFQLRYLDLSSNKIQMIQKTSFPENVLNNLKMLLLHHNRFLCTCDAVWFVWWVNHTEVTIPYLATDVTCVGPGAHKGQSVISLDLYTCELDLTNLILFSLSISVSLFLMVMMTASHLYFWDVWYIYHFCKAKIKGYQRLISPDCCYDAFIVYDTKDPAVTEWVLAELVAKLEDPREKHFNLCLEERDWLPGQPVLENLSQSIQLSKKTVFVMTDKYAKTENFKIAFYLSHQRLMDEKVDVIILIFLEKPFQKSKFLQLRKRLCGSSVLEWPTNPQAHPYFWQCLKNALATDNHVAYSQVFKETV

As to `CCCN(OCC)C(=O)C1=Cc2ccc(-c3ccc(C(=O)N4CCCC4)cc3)cc2N=C(N)C1` [CycBz-67], the EC50 is 3.01 µM in test [1] and 0.256 µM in test [2]. The matching figures for `CCCN(OCC)C(=O)C1=Cc2ccc(-c3cccc(S(=O)(=O)N4CC(CNC(=O)C5CCNCC5)C4)c3)cc2N=C(N)C1` [CycBz-51]: 9 µM and 4.19 µM. In the case of `CCCN(CC1CNC(=O)O1)C(=O)C1=Cc2ccc(-c3cnc(CN)nc3)cc2N=C(N)C1` (centres unmarked) [CycBz-25], the EC50 in test [1] turned out to be 9 µM.

In the case of `CCCN(C(=O)C1=Cc2ccc(-c3cnc(CN)nc3)cc2N=C(N)C1)[C@H]1C[C@H](NC(=O)OC2CCC2)C1` [CycBz-44], the EC50 in test [1] is 9 µM. On to `CCCN(OCC1COC(=O)N1)C(=O)C1=Cc2ccc(-c3cnc(CN)nc3)cc2N=C(N)C1` (centres unmarked) [CycBz-46], for which the EC50 in test [1] stood at 9 µM. In the case of `CCCN(OCC)C(=O)C1=Cc2ccc(-c3ccc(C(=O)N[C@@H](C)C(=O)OC(C)(C)C)cc3)cc2N=C(N)C1` [CycBz-74], the EC50 was determined as 1.92 µM in test [1] and 0.012 µM in test [2].

With `CCCN(OCCNC(=O)OC1CCC1)C(=O)C1=Cc2ccc(-c3cccc(S(=O)(=O)N4CC(CN)C4)c3)cc2N=C(N)C1` [CycBz-60], the EC50 in test [1] was 0.738 µM; in test [2], 0.163 µM. Turning to `CCCN(OCC)C(=O)C1=Cc2ccc(-c3ccc(C(=O)N4CCC(N)C4)cc3)cc2N=C(N)C1` (centres unmarked) [CycBz-54], the EC50 in test [1] is 3.09 µM; in test [2], 0.86 µM. Regarding `CCCN(OCCO)C(=O)C1=Cc2ccc(-c3cncc(S(=O)(=O)N4CC(CN)C4)c3)cc2N=C(N)C1` [CycBz-43], the EC50 in test [1] was 9 µM. `CCCN(OCC)C(=O)C1=Cc2ccc(-c3ccc(C(=O)N4CCC[C@H]4C(=O)OC)cc3)cc2N=C(N)C1` [CycBz-59]: the EC50 in test [1] stood at 0.047 µM; in test [2] it was 0.006 µM. The matching figures for `CCCN(CC1CNC(=O)CO1)C(=O)C1=Cc2ccc(-c3cnc(CN)nc3)cc2N=C(N)C1` (centres unmarked) [CycBz-42]: 9 µM and 9 µM. The matching figures for `CCCN(OCCNC(=O)NC1COC1)C(=O)C1=Cc2ccc(-c3cnc(CN)nc3)cc2N=C(N)C1` [CycBz-17]: 9 µM and 9 µM. On to `CCCN(CCCNC(N)=O)C(=O)C1=Cc2ccc(-c3cccc(S(=O)(=O)N4CC(CN)C4)c3)cc2N=C(N)C1` [CycBz-70], for which the EC50 in test [1] and in test [2] was 9 µM each time. Take `CCCN(OCC)C(=O)C1=Cc2ccc(-c3cc(CN)ncn3)cc2N=C(N)C1` [CycBz-48]: the EC50 in test [1] was 9 µM; in test [2] it was 2.16 µM.

In the case of `CCCN(OCC)C(=O)C1=Cc2ccc(-c3ccc(C(=O)N4CCC(NC(=O)OC(C)(C)C)C4)cc3)cc2N=C(N)C1` (centres unmarked) [CycBz-55], the EC50 was 3.68 µM in test [1] and 0.377 µM in test [2]. For the compound `CCCN(OCC)C(=O)C1=Cc2ccc(-c3ccc(C(=O)OC)cc3)cc2N=C(N)C1` [CycBz-52], the EC50 in test [1] is 5.76 µM; in test [2], 0.629 µM. On to `CCCN(OCC(F)(F)F)C(=O)C1=Cc2ccc(-c3cccc(S(=O)(=O)N4CC(CN)C4)c3)cc2N=C(N)C1` [CycBz-49], for which the results for the EC50 in test [1] and in test [2] were 3.93 µM and 0.461 µM, respectively. The matching figures for `CCCN(CCCCO)C(=O)C1=Cc2ccc(-c3cccc(S(=O)(=O)N4CC(CN)C4)c3)cc2N=C(N)C1` [CycBz-62]: 9 µM and 4.66 µM. The matching figures for `CCCN(OCC)C(=O)C1=Cc2ccc(-c3ccc(C(=O)N[C@H](C)C(=O)OC(C)(C)C)cc3)cc2N=C(N)C1` [CycBz-75]: 4.75 µM and 0.086 µM. The matching figures for `CCCN(CCCO)C(=O)C1=Cc2ccc(-c3cccc(S(=O)(=O)N4CC(CNC(=O)OC(C)(C)C)C4)c3)cc2N=C(N)C1` [CycBz-58]: 7.15 µM and 0.374 µM. Take `CCCN(CCCO)C(=O)C1=Cc2ccc(-c3cnc(CN)nc3)cc2N=C(N)C1` [CycBz-26]: the EC50 in test [1] and in test [2] was 9 µM in each case. Turning to `CCCN(OCC)C(=O)C1=Cc2ccc(-c3ncc(CN)cn3)cc2N=C(N)C1` [CycBz-10], the EC50 in test [1] came to 9 µM. As to `CCCN(CCCO)C(=O)C1=Cc2ccc(-c3cccc(S(=O)(=O)N4CC(CN)C4)c3)cc2N=C(N)C1` [CycBz-63], the EC50 came out at 9 µM in test [1] and 3.61 µM in test [2]. The matching figures for `CCCN(CCO)C(=O)C1=Cc2ccc(-c3cccc(S(=O)(=O)N4CC(CN)C4)c3)cc2N=C(N)C1` [CycBz-68]: 9 µM and 4.91 µM.

For `CCCN(CCCNC(=O)OC1CCC1)C(=O)C1=Cc2ccc(-c3cccc(S(=O)(=O)N4CC(CN)C4)c3)cc2N=C(N)C1` [CycBz-65], the EC50 in test [1] is 2.31 µM; in test [2], 1.56 µM. For the compound `CCCN(OCC)C(=O)C1=Cc2ccc(-c3ccc(C(=O)N4CCC[C@@H]4C(=O)OC)cc3)cc2N=C(N)C1` [CycBz-64], the EC50 turned out to be 3.43 µM in test [1] and 0.097 µM in test [2].

The values are drawn from patent US20240033370A1, “ANTI-PD-L1 IMMUNOCONJUGATES, AND USES THEREOF” (BOLT BIOTHERAPEUTICS, INC., priority 2020, published 2024).
